Laboratory results taken from patent US7307063B2, “Melanocortin metallopeptides for treatment of sexual dysfunction” (Palatin Technologies, Inc., priority 2001, dated 2007).
Where “and” joins values, the source holds several entries; their conditions need not be identical. Identical values can stand only once. Non-standard residues stand in square brackets, D forms with d. No end group written: not given here. *: point of attachment. Bip = N[C@@H](Cc1ccc(-c2ccccc2)cc1)C(=O)O; dBip = N[C@H](Cc1ccc(-c2ccccc2)cc1)C(=O)O; Desaminotyrosyl = O=C(CCc1ccc(O)cc1)*; Heptanoyl = CCCCCCC(=O)*; Nle = CCCC[C@H](N)C(=O)O; Bn = c1ccc(C*)cc1

Key:
MC1-R = target: T1, MC1-R (Mus musculus, UniProt Q01727); experiment: Competitive binding assay: inhibition of 125I-NDP-α-MSH binding to membranes from B16-F10 mouse melanoma cells; settings: Table 6, mean of triplicate
T1 construct: MC1-R membranes were isolated from B16—F10 mouse melanoma cells; endogenous in cells; host or cells: B16-F10 mouse melanoma cells
Procedure: (§1) Rhenium-complexed metallopeptides of the formulas given in Table 1 were prepared, with the metallopeptides complexed with rhenium using the rhenium transfer agent ReOCl3(PPh3)2 in the presence of 1,8-Diazabicyclo[5,4,0] undec-7-ene as a base, as disclosed in International Application PCT/US00/16396, filed Jun. 14, 2000, Melanocortin Metallopeptide Constructs, Combinatorial Libraries and Applications, incorporated by reference herein. Affinities of compounds were measured using membranes from HEK-293 cells containing cloned human melanocortin receptor subtypes 3, 4 and 5. MC1-R membranes were isolated from B16—F10 mouse melanoma cells. The assay tube also contained a chosen concentration of the test peptide of this invention, complexed to a rhenium metal ion as indicated, for determining its efficacy in inhibiting the binding of ^125I-NDP-α-MSH to its receptor. Non-specific binding was measured by complete inhibition of binding of ^125I-NDP-α-MSH in the assay with the presence of 1 μM α-MSH. 100% specific binding was defined as the difference in radioactivity (cpm) bound to cell membranes in the absence and presence of 1 μM α-MSH. The cpm obtained in presence of test compounds were normalized with respect to 100% specific binding to determine the percent inhibition of ^125I-NDP-α-MSH binding.
(§2) Peptide sequences set forth in Table 6 were prepared using conventional synthetic means. The resulting sequences were rhenium-complexed to form metallopeptides, with the metallopeptides complexed with rhenium using the rhenium transfer agent ReOCl3(PPh3)2 in the presence of 1,8-Diazabicyclo[5,4,0] undec-7-ene as a base. Percent inhibition was determined as in Example 1 using the Re-complexed metallopeptides, using the same methods as described therein. All measures are means of triplicate determinations.

hMC2-R = target: T2, hMC2-R (Homo sapiens, UniProt P41968); experiment: Competitive binding assay of additional compounds, Table 6 hMC2-R; settings: 1 μM, mean of triplicate
T2 construct: expressed in transfected cells; host or cells: HEK-293
Procedure: [The source words this procedure for another target and reports this target under the same test.] as §1, §2

hMC5-R = target: T3, hMC5-R (Homo sapiens, UniProt P33032); experiment: Competitive binding assay: inhibition of 125I-NDP-α-MSH binding to HEK-293 membranes with cloned human receptor subtype 5; settings: Table 6; 1 μM; mean of triplicate
T3 construct: expressed in transfected cells; host or cells: HEK-293
Procedure: as §1, §2

MC4-R = target: T4, MC4-R (Homo sapiens, UniProt P32245); experiment: Competitive binding assay: inhibition of 125I-NDP-α-MSH binding to HEK-293 membranes with cloned human receptor subtype 4; settings: Table 6, mean of triplicate
T4 construct: expressed in transfected cells; host or cells: HEK-293
Procedure: as §1, §2

[1] = 1 μM, listed as 3′-Bromo phenyl acetyl-Arg-Arg-D-Phe(4′-Cl)-Cys-Nal 2′-NH2, 1 µM
[2] = 1 μM, listed as Hept-Ser(Bzl)-D-Nal 2′-Arg-Nal 2′-Cys-NH2, 1 µM

T4 sequence (P32245 whole entry): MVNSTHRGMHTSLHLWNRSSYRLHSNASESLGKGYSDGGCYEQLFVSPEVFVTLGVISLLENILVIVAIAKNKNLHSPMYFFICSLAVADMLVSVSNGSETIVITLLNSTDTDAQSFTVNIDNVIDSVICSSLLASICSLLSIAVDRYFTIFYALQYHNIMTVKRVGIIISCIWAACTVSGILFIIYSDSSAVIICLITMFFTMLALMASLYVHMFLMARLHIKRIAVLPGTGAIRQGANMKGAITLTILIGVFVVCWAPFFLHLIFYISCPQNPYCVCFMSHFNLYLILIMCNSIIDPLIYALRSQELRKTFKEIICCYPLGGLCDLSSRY
T2 sequence (P41968 whole entry): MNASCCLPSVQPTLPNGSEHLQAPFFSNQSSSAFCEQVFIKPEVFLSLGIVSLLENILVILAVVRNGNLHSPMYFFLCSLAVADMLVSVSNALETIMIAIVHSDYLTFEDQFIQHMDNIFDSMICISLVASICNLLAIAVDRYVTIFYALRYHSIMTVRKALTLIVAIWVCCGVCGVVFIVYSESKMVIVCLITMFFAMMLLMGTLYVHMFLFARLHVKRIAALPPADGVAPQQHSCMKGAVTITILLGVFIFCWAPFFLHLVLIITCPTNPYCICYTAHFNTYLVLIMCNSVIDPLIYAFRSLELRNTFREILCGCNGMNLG
T1 sequence (Q01727 whole entry): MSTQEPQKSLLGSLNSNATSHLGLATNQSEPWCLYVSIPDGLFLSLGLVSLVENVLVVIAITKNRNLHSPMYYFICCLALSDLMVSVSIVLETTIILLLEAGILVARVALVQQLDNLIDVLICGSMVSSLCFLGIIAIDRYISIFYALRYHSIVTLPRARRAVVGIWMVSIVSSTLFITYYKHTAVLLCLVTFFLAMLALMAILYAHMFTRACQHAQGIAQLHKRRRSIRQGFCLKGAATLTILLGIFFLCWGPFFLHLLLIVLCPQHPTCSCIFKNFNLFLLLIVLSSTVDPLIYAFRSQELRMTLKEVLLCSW
T3 sequence (P33032 whole entry): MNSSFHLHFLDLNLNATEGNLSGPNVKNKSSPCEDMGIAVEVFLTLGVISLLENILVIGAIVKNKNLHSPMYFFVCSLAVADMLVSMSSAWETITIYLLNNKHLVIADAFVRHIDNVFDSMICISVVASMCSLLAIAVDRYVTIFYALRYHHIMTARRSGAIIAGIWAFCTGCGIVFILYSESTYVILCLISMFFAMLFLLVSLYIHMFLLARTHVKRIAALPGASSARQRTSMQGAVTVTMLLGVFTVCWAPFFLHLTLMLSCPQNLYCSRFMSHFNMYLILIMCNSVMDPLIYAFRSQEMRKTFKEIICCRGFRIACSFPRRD

Substance | % Inhibition of Binding MC1-R (MC1-R; 1 μM) | % Inhibition of Binding hMC2-R (hMC2-R) | % Inhibition of Binding hMC4-R (MC4-R; 1 μM) | further results
Tic-D-Phe(4′-Cl)-Arg-Cys-NH2 | 0% | 0% | 3% | % Inhibition of Binding hMC5-R (hMC5-R): 42%
D-Nal 1′-D-Phe-Arg-Cys-Trp-NH2 | 22% | 0% | 8% | % Inhibition of Binding hMC5-R (hMC5-R): 48%
Tic-D-Phe(4′-Cl)-His-Cys-NH2 | 15% | 0% | 0% | % Inhibition of Binding hMC5-R (hMC5-R): 37%
Ac-Nle-Ala-His-D-Phe-Arg-His-Cys-NH2 ({Ac-Nle-Ala-H2N}-[dF]RHC-NH2; not fully specified; printed as Ac-Nle-Ala-His-D-Phe-Arg-His-Cys-NH2) | 58% | 0% | 1% | % Inhibition of Binding hMC5-R (hMC5-R): 0%
Ac-[Nle]AH[dBip]RWC-NH2 | 99% | 100% | – | –
Ac-[Nle]AH[dF]R[Bip]C-NH2 | 35% | 100% | – | –
3′-Br Phenyl acetyl-Arg-Arg-D-Phe(4′-Me)-Cys-Trp-NH2 | 93% and 85% | 86% | 98% and 82% | % Inhibition of Binding hMC5-R (hMC5-R): 94%
3′-(4′-Hydroxyphenyl)propionyl-D-Phe-Arg-Cys-Trp-NH2 (Desaminotyrosyl-[dF]RCW-NH2; not fully specified; printed as 3′-(4′-Hydroxyphenyl)propionyl-D-Phe-Arg-Cys-Trp-NH2) | 7% | 0% | 0% | % Inhibition of Binding hMC5-R (hMC5-R): 14%
3′-Br-Phenylacetyl-His-D-Phe(4′-Cl)-Trp-Cys-NH2 | 41% | 15% | 3% | % Inhibition of Binding hMC5-R (hMC5-R): 40%
Ac-Leu-His-D-Phe-Arg-Cys-Trp-NH2 ({Ac-Leu-H2N}-[dF]RCW-NH2; not fully specified; printed as Ac-Leu-His-D-Phe-Arg-Cys-Trp-NH2) | 75% | 0% | 0% | % Inhibition of Binding hMC5-R (hMC5-R): 31%
Idc-D-Phe-Arg-Trp-Cys-NH2 | 12% | 0% | 11% | % Inhibition of Binding hMC5-R (hMC5-R): 0%
7-amino-haptanoyl-Ser(Bzl)-D-Nal 2′-Arg-Cys-NH2 | 3% | 0% | 6% | % Inhibition of Binding hMC5-R (hMC5-R): 34%
D-Nal 2′-D-Phe-Arg-Cys-Trp-NH2 | 50% | 7% | 0% | % Inhibition of Binding hMC5-R (hMC5-R): 52%
Heptanoyl-S(Bn)[dBip]RWC-NH2 | 84% | 0% | – | –
3′-Br Phenyl acetyl-Arg-Arg-D-Phe(4′-Cl)-Cys-Nal 2′-NH2 | 90% | 95% | 96% | % Inhibition of Binding MC1-R (MC1-R; [1]): 79%; % Inhibition of Binding hMC2-R (hMC2-R; listed as 3′-Bromo phenyl acetyl-Arg-Arg-D-Phe(4′-Cl)-Cys-Nal 2′-NH2, 1 µM): 55%; % Inhibition of Binding hMC4-R (MC4-R; [1]): 94%
Heptanoyl-S(Bn)[dBip]R[Bip]C-NH2 | 30% | 0% | – | –
Heptanoyl-Ser(Bzl)-D-Nal 2′-Arg-Nal 2′-Cys-NH2 | 28% | 41% | 91% | % Inhibition of Binding MC1-R (MC1-R; [2]): 25%; % Inhibition of Binding hMC2-R (hMC2-R; listed as Hept-Ser(Bzl)-D-Nal 2′-Arg-Nal 2′-Cys-NH2, 1 µM): 62%; % Inhibition of Binding hMC4-R (MC4-R; [2]): 92%
Ac-[Nle]AH[dBip]RC[Bip]-NH2 | 77% | 100% | – | –
Ac-[Nle]AH[dBip]RCW-NH2 | 72% | 100% | – | –
Ac-[Nle]AH[dF]RC[Bip]-NH2 | 82% | 100% | – | –
Heptanoyl-Ser(Bzl)-D-Phe(4′-Cl)-Arg-Bip-Cys-NH2 | 65% | 5% | – | –
Ac-[Nle]AH[dBip]R[Bip]C-NH2 | 95% | 100% | – | –
Heptanoyl-Ser(Bzl)-D-Phe(4′-Cl)-Gly-Nal 2′-Cys-Lys-NH2 | 46% | – | 5% | –
Ser(Bzl)-D-Phe(4′-Cl)-Arg-Nal 2′-Cys-Lys-NH2 | – | – | – | % Inhibition of Binding MC1-R (MC1-R; 0.1 μM): 33%; % Inhibition of Binding hMC4-R (MC4-R; 0.1 μM): 95%

Substance | % Inhibition of Binding MC1-R (MC1-R; 1 μM) | % Inhibition of Binding hMC2-R (hMC2-R) | % Inhibition of Binding hMC4-R (MC4-R; 1 μM) | further results
Heptanoyl-Ser(Bzl)-D-Phe(2′-Cl)-Lys-Phg-Cys-NH2 | 16% | – | 15% | –
[dF]R[dW]CW-NH2 | 37% | – | 32% | –
3′-Cl Phenyl acetyl-Arg-Ala-D-Phe(4′-CF3)-Cys-Trp-NH2 | 21% | – | 95% | –
Heptanoyl-Ser(Bzl)-D-Phe(4′-Cl)-Arg-Tyr(Bzl)-Cys-NH2 | 16% | – | 85% | –
4′-Aminomethyl-Phenylacetyl Arg-Arg-Ala-D-Phe(4′-Cl)-Cys-Trp-NH2 | 61% | – | 84% | –
Heptanoyl-Ser(Bzl)-D-Phe(2′-Cl)-Lys-Phe-Cys-NH2 | 20% | – | 19% | –
Ac-[Nle]A[dF][dC]R-NH2 | 22% | – | 0% | –
3′-Br Phenyl acetyl-Arg-Ala-D-Phe(3′-Cl)-Cys-Trp-NH2 | 23% | – | 84% | –
D-Phe-Arg-Trp-Cys-Trp-NH2 ([dF]RWCW-NH2; also: metallopeptide) | 90% | – | 70% | –
Heptanoyl-R[dF]GWCK-NH2 | 92% | – | 32% | –
3′-Cl-Phenylacetyl-Arg-Arg-D-Phe(4′-CH2PO3Et3)-Cys-Trp-NH2 | 97% | – | 52% | –
2′-Naphthyl acetyl-Arg-Arg-D-Phe(4′-Cl)-Cys-Trp-NH2 | 93% | – | 96% | –
Heptanoyl-Ser(Bzl)-D-Phe(4′-Cl)-Arg-Tyr(2′,6′-diCl-Bzl)-Cys-NH2 | 19% | – | 0% | –
3′-Br-Phenylacetyl-Lys-Ala-D-Phe(4′-CH3)Cys-Lys-NH2 | 34% | – | 73% | –
Heptanoyl-Ser(Bzl)-D-Phe(4′-Cl)-Arg-Tyr(3′,5′-Di-l)-Cys-NH2 | – | – | – | % Inhibition of Binding MC1-R (MC1-R; 0.1 μM): 10%; % Inhibition of Binding hMC4-R (MC4-R; 0.1 μM): 85%
D-Phe(4′-Cl)-Arg-Nal 2′-Cys-Lys-NH2 | – | – | – | % Inhibition of Binding MC1-R (MC1-R; 0.01 μM): 43%; % Inhibition of Binding hMC4-R (MC4-R; 0.01 μM): 73%
3′-Br-Phenylacetyl-Lys-Lys-D-Phe(4′-CH3)Cys-Lys-NH2 | 65% | – | 69% | –
Heptanoyl-Ser(Bzl)-D-Phe(4′-Cl)-Arg-Phe(3′-Cl)-Cys-NH2 | – | – | – | % Inhibition of Binding MC1-R (MC1-R; 0.1 μM): 27%; % Inhibition of Binding hMC4-R (MC4-R; 0.1 μM): 67%
HyP(Bzl)-D-Phe(2′-Cl)-Nal 2′-Cys-NH2 | 57% | – | 85% | –
Heptanoyl-Ser(Bzl)-D-Phe(2′-Cl)-Lys-Hphe-Cys-NH2 | 12% | – | 6% | –
1′-Naphthyl acetyl-Arg-Arg-D-Phe(3′-Cl)-Cys-Trp-NH2 | 77% | – | 92% | –
1′-Naphthyl acetyl-Arg-Arg-D-Phe(4′-Cl)-Cys-Trp-NH2 | 97% | – | 98% | –
[dF]R[dW]CK-NH2 | 66% | – | 55% | –
Heptanoyl-Ser(Bzl)-D-Phe(4′-Cl)-Arg-Asp(OcHx)-Cys-NH2 | – | – | – | % Inhibition of Binding MC1-R (MC1-R; 0.1 μM): 15%; % Inhibition of Binding hMC4-R (MC4-R; 0.1 μM): 25%
